For one assay, the system named is MKN-45. The assay is described as follows: cells. The note with it: Homo sapiens, MKN-45, 48 h.
The target in assay [1] is T1, Alpha-mannosidase (Canavalia ensiformis) (UniProt C0HJB3).
T1 sequence (whole entry): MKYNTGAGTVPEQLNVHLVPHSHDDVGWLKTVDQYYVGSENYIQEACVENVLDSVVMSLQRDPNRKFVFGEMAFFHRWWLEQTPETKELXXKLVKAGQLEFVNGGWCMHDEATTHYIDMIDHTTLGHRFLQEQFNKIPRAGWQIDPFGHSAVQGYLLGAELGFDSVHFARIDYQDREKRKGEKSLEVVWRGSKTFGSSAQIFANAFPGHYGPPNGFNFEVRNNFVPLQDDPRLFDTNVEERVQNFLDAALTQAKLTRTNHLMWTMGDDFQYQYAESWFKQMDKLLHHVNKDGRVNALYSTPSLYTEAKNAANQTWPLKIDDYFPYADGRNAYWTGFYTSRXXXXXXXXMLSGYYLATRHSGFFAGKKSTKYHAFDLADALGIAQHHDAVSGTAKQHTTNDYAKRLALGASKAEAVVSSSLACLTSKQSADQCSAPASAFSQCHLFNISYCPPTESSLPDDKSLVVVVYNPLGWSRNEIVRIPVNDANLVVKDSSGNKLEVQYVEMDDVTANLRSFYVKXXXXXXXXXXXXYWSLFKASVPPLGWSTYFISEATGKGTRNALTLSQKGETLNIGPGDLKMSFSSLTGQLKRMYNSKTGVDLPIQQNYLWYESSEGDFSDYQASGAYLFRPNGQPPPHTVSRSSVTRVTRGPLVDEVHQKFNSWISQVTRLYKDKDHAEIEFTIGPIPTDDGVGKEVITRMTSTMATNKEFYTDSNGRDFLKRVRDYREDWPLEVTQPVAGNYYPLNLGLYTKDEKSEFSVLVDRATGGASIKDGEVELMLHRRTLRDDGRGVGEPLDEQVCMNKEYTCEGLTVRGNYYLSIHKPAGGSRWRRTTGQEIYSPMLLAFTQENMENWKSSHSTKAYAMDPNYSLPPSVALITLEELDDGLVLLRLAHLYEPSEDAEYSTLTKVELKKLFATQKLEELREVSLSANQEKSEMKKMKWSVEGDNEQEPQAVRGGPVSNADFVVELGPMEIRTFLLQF
The assay is described as follows: Inhibition of jack bean alpha-mannosidase using p-nitrophenyl glycoside as substrate assessed as release of p-nitrophenol at 1000 uM by spectrometric analysis relative to control.

Assay [2] in a line: Inhibition of bovine liver beta-galactosidase using p-nitrophenyl glycoside as substrate assessed as release of p-nitrophenol by spectrometric analysis. Further details: species or system Bos taurus.
A short description of assay [3]: Inhibition of rice alpha-glucosidase using p-nitrophenyl glycoside as substrate assessed as release of p-nitrophenol by spectrometric analysis. Further details: species or system Oryza sativa.
Assay [4] addresses Lysosomal alpha-glucosidase (Homo sapiens, UniProt P10253). The assay is described as follows: Inhibition of human lysosome alpha-glucosidase using p-nitrophenyl glycoside as substrate assessed as release of p-nitrophenol by spectrometric analysis.
Assay [5] has as its target Alpha-galactosidase (Coffea arabica) (UniProt Q42656). The assay can be described thus: Inhibition of coffee bean alpha-galactosidase using p-nitrophenyl glycoside as substrate assessed as release of p-nitrophenol at 1000 uM by spectrometric analysis relative to control.
Assay [6] deals with T2, Tissue alpha-L-fucosidase (Bos taurus) (UniProt Q2KIM0).
T2 sequence (whole entry): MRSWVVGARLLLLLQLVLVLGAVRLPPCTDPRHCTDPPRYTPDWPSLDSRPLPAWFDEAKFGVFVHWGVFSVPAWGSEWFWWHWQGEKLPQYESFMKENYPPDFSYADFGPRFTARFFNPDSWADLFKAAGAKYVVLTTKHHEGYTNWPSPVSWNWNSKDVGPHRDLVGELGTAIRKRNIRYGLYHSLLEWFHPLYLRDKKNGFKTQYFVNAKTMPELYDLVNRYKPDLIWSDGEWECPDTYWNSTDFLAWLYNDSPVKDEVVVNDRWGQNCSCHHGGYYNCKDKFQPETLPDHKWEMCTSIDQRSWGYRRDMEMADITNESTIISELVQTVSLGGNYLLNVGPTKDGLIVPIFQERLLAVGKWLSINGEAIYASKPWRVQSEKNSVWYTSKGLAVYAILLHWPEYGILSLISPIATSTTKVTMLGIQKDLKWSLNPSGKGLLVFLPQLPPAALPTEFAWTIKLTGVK
The assay can be described thus: Inhibition of bovine kidney alpha-L-fucosidase using p-nitrophenyl glycoside as substrate assessed as release of p-nitrophenol at 1000 uM by spectrometric analysis relative to control.

Assay [7] addresses T3, Glucosylceramidase (Bos taurus) (UniProt Q2KHZ8).
T3 sequence (whole entry): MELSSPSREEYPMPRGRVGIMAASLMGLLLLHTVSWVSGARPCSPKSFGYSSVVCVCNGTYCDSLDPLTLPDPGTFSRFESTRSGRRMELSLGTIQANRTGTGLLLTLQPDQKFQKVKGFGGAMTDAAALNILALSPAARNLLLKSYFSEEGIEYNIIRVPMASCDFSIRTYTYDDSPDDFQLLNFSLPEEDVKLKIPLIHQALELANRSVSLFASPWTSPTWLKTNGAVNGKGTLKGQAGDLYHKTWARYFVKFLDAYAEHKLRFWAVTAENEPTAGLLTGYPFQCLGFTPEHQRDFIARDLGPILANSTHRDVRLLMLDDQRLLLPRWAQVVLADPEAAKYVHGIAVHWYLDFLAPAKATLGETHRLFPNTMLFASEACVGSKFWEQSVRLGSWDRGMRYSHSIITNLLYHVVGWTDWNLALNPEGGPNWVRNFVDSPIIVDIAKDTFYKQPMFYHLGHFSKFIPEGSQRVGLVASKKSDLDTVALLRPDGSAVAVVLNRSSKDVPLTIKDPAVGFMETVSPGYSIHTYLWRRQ
The assay can be described thus: Inhibition of bovine liver beta-glucosidase using p-nitrophenyl glycoside as substrate assessed as release of p-nitrophenol at 1000 uM by spectrometric analysis relative to control.

The values that follow come from ChEMBL document CHEMBL5579830, “Design and synthesis of 6-C-alkyl-DMDP type nanomolar inhibitors of β-galactosidase and β-glucosidase based on broussonetine S and related derivatives” (Eur J Med Chem, 2024).

pEC50, pIC50: −log10 of the molar value.

Sequence of Alpha-galactosidase (Coffea arabica) (Q42656 16-378 limits assumed): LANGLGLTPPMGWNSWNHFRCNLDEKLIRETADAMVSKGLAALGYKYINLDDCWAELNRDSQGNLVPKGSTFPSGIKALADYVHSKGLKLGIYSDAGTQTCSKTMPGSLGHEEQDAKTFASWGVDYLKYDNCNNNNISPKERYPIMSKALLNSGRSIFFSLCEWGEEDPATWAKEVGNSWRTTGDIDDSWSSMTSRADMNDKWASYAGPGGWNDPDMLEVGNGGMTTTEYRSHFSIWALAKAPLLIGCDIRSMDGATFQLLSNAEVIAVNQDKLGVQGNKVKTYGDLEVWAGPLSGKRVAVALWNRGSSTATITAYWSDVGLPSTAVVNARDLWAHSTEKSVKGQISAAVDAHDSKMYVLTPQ

One may read the pEC50 as the negative decadic logarithm of the EC50, by convention in mol/L. Take `CC(=O)O[C@H]1C(=O)[C@@]2(C)[C@H]([C@H](OC(=O)c3ccccc3)[C@]3(O)C[C@H](OC(=O)[C@H](O)[C@@H](NC(=O)c4ccccc4)c4ccccc4)C(C)=C1C3(C)C)[C@]1(OC(C)=O)CO[C@@H]1C[C@@H]2O` [PACLITAXEL]: the pEC50 with MKN-45 is 8.52.

The term inhibition denotes the relative decrease from the control value, in per cent. A word on the pIC50: it is −log10 of the IC50, conventionally taken in molar units. In the case of `CCCCCCC[C@H](O)[C@@H]1N[C@@H](CO)[C@H](O)[C@H]1O`, the inhibition in assay [1] is 2.6%; in assay [5] it was 0%. Further, the pIC50 in assay [2] is 4.39; in assay [3] it was 5.22; in assay [4], 5.68.

On to `OCCC[C@H](O)CCCCCCCCC[C@@H]1N[C@@H](CO)[C@H](O)[C@H]1O`, for which the inhibition was 2.2% in assay [1], 0% in assay [6], 46.5% in assay [7] and 0.3% in assay [5]. Further, the pIC50 in assay [2] was 4.30; in assay [3], 5.92.
